The text below walks through data of US20100076092A1, “LIPID-DERIVED NANOPARTICLES FOR BRAIN-TARGETED DRUG DELIVERY” (priority 2006, published 2010).

This series can be described thus: Biodistribution / brain delivery of drug in mice after intravenous drug-loaded nanoparticles. The class given is in vivo. Conditions: mouse, BMS, 12 mg/kg intravenously through tail vein in mice, HPLC, mean±SD (n=6), read-out: drug levels in the brain. As for the experimental part: The brain delivery of BMS was assessed one hour following intravenous administration of brain lipid-coated nanoparticles in mice (FIG. 1). BMS in nanoparticles with or without brain-derived lipids or equivalent amount in solution (12 mg/kg) was injected intravenously in mice through tail vein, and drug levels in different tissues at the end of 1 hr was analyzed by HPLC. Data as mean±SD (n=6). * p<0.05. […] Data as mean±SD (n=4 and 3). * p<0.05.

With `Cc1noc(NS(=O)(=O)c2cccc3c(N(C)C)cccc23)c1C` [solution control, BMS 182874], the concentration at 1 h is 2360 ± 580 ng/g.
